Here are results for five compounds from US20260306525A1, “COMBINATION THERAPY GLUCOCORTICOIDS AND GINSENOSIDE” (FYTAGORAS B.V., priority 2023, published 2026).

What all share (assay type): in vivo, zebrafish (Danio rerio)
Experiment [1] concerns il8. As to the kind of experiment: qPCR il8 expression in zebrafish larvae. Particulars: Example 2, wounded larvae. The procedure:
(§1) To determine mRNA levels of specific genes in zebrafish, 3 dpf larvae were used (wounded and non-wounded) and after 6 h of chemical treatments (2 h pre-wounding, 4 h post-wounding), as indicated. Per sample, groups of 15 larvae were collected in TRIzol reagent (Thermo Fisher Scientific, Waltham, MA, USA), and total RNA was isolated using the miRNeasy mini kit (Qiagen, Hilden, Germany). For similar experiments in Hela cells, cells were seeded in 6 well plates, and after 6 h of chemical treatment, the cells were removed from the wells using TRIzol reagent, and total RNA was isolated using the miRNeasy mini kit according to the manufacturer's instructions. The RNA samples were DNAse-treated utilizing the DNA-free™ DNA Removal Kit (Thermo Fisher Scientific). The cDNA synthesis was performed using the iScript cDNA synthesis kit (Bio-Rad Laboratories, Hercules, CA, USA) using 1 μg of RNA per sample. For the PCR reactions, 10 μM of forward and 10 μM of reverse primer, 12.5 μl of iQ SYBR Green Supermix (Bio-Rad), and 2 μl of cDNA were added to the qPCR reaction mixture. […] The reactions were performed on a MyiQ-single-color real-time PCR detection system (Bio-Rad Laboratories) with initial denaturation for 3 min at 95° C. and 40 cycles of 15 s at 95.5° C., 15 s at 60° C., and 30 s at 72° C. Cycle threshold values (Ct values, i.e. the cycle numbers at which a threshold value of the fluorescence intensity was reached) were determined for each sample. The gene expression level for each sample was normalized using the expression of ppial (peptidylprolyl isomerase Ab (cyclophilin A)) for zebrafish samples, 18S rRNA for human cells. The fold change per sample (compared to the respective control group) was calculated using the ΔΔCt method.
On the technique in general: Quantitative PCR measures a nucleic acid by following its amplification.

Experiment [2] relates to nfkbiaa. Briefly: qPCR nfkbiaa expression in zebrafish larvae. Particulars: for nfkbiaa expression: Example 2, 6 h treatment; for nfkbiaa expression, short-term treatment / nfkbiaa expression, long-term treatment: 5 dpf, beclomethasone 10 μM, Rg1 50 μM or combination; for nfkbiaa expression, short-term treatment: 6 h; for nfkbiaa expression, long-term treatment: 5 days. The procedure: (§2) […] Groups of 15 larvae were collected in TRIzol reagent (ThermoFisher) and total RNA was isolated using miRNeasy mini kit (Qiagen, Hilden, Germany). For experiments in HeLa cells, cells were seeded in 6 well plates and after treatment, the cells were removed from the wells using TRIzol reagent and mRNA was isolated using miRNeasy mini kit (Qiagen) according to the manufacturer's instructions. The RNA samples were DNAse-treated utilizing the DNA-free™ DNA Removal Kit (ThermoFisher Scientific). The cDNA synthesis was performed using the iScript cDNA synthesis kit (Bio-Rad Laboratories, Hercules, CA, USA) using 1 μg of RNA per sample. For qPCR, 10 μM of forward primer and 10 μM of reverse primer, 12.5 μl of IQ SYBR Green Supermix (Bio-Rad Laboratories), and 2 μl of cDNA were added to the qPCR reaction mixture. […] The qPCR reactions were performed on a MyiQ-single-color real-time PCR detection system (Bio-Rad Laboratories), with initial denaturation for 3 min, 95° C., and 40 cycles of 15 s at 95.5° C., 15 s at 60° C., and 30 s at 72° C. Cycle threshold values (Ct values, i.e. the cycle numbers at which a threshold value of the fluorescence intensity was reached) were determined for each sample. The gene expression level for each sample was normalized using the expression of ppial (peptidylprolyl isomerase Ab (cyclophilin A)) for zebrafish samples, and 18S rRNA for human cells. The fold change per sample (compared to the respective control group) was calculated using the […]Ct method.
as §1, with “To determine mRNA levels of specific genes in zebrafish, 3 dpf larvae were used (wounded and non-wounded) and after 6 h of chemical treatments (2 h pre-wounding, 4 h post-wounding), as indicated.” left out

Experiment [3] concerns il1b. As to the kind of experiment: qPCR il1b expression in zebrafish larvae. The following applies: for il1b expression after wounding: 10 μM beclomethasone, 50 μM Rg1 or combination, 4 h after wounding. How it is done: To determine levels of gene expression in zebrafish larvae, 3 dpf larvae were used in both wounded and non-wounded conditions, and after short- and long-term treatments. Groups of 15 larvae were collected in TRIzol reagent (ThermoFisher) and total RNA was isolated using miRNeasy mini kit (Qiagen, Hilden, Germany). For experiments in HeLa cells, cells were seeded in 6 well plates and after treatment, the cells were removed from the wells using TRIzol reagent and mRNA was isolated using miRNeasy mini kit (Qiagen) according to the manufacturer's instructions. The RNA samples were DNAse-treated utilizing the DNA-free™ DNA Removal Kit (ThermoFisher Scientific). The cDNA synthesis was performed using the iScript cDNA synthesis kit (Bio-Rad Laboratories, Hercules, CA, USA) using 1 μg of RNA per sample. For qPCR, 10 μM of forward primer and 10 μM of reverse primer, 12.5 μl of IQ SYBR Green Supermix (Bio-Rad Laboratories), and 2 μl of cDNA were added to the qPCR reaction mixture. […] The qPCR reactions were performed on a MyiQ-single-color real-time PCR detection system (Bio-Rad Laboratories), with initial denaturation for 3 min, 95° C., and 40 cycles of 15 s at 95.5° C., 15 s at 60° C., and 30 s at 72° C. Cycle threshold values (Ct values, i.e. the cycle numbers at which a threshold value of the fluorescence intensity was reached) were determined for each sample. […] The fold change per sample (compared to the respective control group) was calculated using the […]Ct method.
To determine mRNA levels of specific genes in zebrafish, 3 dpf larvae were used (wounded and non-wounded) and after 6 h of chemical treatments (2 h pre-wounding, 4 h post-wounding), as indicated. […] Cycle threshold values (Ct values, i.e. the cycle numbers at which a threshold value of the fluorescence intensity was reached) were determined for each sample. […] The fold change per sample (compared to the respective control group) was calculated using the ΔΔCt method.

Experiment [4] has as its system gr. As to the kind of experiment: qPCR gr mRNA level in zebrafish larvae. The following applies: short-term (6 h) and long-term (5 days); beclomethasone 10 μM, Rg1 50 μM or combination. The procedure:
as §2, with “The gene expression level for each sample was normalized using the expression of ppial (peptidylprolyl isomerase Ab (cyclophilin A)) for zebrafish samples, and 18S rRNA for human cells.” left out

Each structure is given as a SMILES string.

Turning to `CC(C)=CCC[C@](C)(O[C@@H]1O[C@H](CO)[C@@H](O)[C@H](O)[C@H]1O)[C@H]1CC[C@]2(C)[C@@H]1[C@H](O)C[C@@H]1[C@@]3(C)CC[C@H](O)C(C)(C)[C@@H]3[C@@H](O)C[C@]12C` [F1], the il8 expression result in experiment [1] is “Only a minor effect”. Further, in experiment [2], the nfkbiaa expression result is given as “did not increase the expression”.
Take `CC(C)=CCC[C@](C)(O)[C@H]1CC[C@]2(C)[C@@H]1[C@H](O)C[C@@H]1[C@@]3(C)CC[C@H](O)C(C)(C)[C@@H]3[C@@H](O)C[C@]12C` [PPT, Protopanaxatriol]: the il8 expression result in experiment [1] was “Only a minor effect”. Further, the nfkbiaa expression result in experiment [2] is given as “did not increase the expression”.
On to `CC(C)=CCC[C@](C)(O[C@@H]1O[C@H](CO)[C@@H](O)[C@H](O)[C@H]1O)[C@H]1CC[C@]2(C)[C@@H]1[C@H](O)C[C@@H]1[C@@]3(C)CC[C@H](O)C(C)(C)[C@@H]3[C@@H](O[C@@H]3O[C@H](CO)[C@@H](O)[C@H](O)[C@H]3O)C[C@]12C` [Rg1, (3β,6α, 12β)-3,12-Dihydroxydammar-24-ene-6,20-diyl bis-β-D-glucopyranoside], for which the “il1b expression after wounding” value in experiment [3] is “slightly decreased the expression of these genes”. Besides, the il8 expression entry in experiment [1] is given as “no effect”. Further, in experiment [2], the “nfkbiaa expression, short-term treatment” value is reported as “did not affect the expression of the genes”; the “nfkbiaa expression, long-term treatment” value is listed as “did not affect the expression of the genes”; the nfkbiaa expression result is “did not increase the expression”. Further, the “gr mRNA level” value in experiment [4] is “did not affect the gr mRNA level”.
As for `CC(C)=CCC[C@](C)(O)[C@H]1CC[C@]2(C)[C@@H]1[C@H](O)C[C@@H]1[C@@]3(C)CC[C@H](O)C(C)(C)[C@@H]3[C@@H](O[C@@H]3O[C@H](CO)[C@@H](O)[C@H](O)[C@H]3O)C[C@]12C` [Rh1], the il8 expression entry in experiment [1] was “no effect”. Moreover, the nfkbiaa expression entry in experiment [2] is reported as “did not increase the expression”.
As to `C[C@H]1C[C@H]2[C@@H]3CCC4=CC(=O)C=C[C@]4(C)[C@@]3(Cl)[C@@H](O)C[C@]2(C)[C@@]1(O)C(=O)CO` [beclomethasone, reference compound], in experiment [3], the “il1b expression after wounding” value was “slightly decreased the expression of these genes”. Moreover, the il1b expression entry in experiment [3] (Example 2, wounded larvae) is “suppressed the expression levels of il1b, il6 and mmp9, similarly to Bec”. Besides, in experiment [2], the “nfkbiaa expression, short-term treatment” value is given as “upregulated the expression”; the “nfkbiaa expression, long-term treatment” value was “this upregulation of pck1 and nfkbiaa was significantly reduced after long-term treatment”. Moreover, in experiment [4], the “gr mRNA level” value is reported as “suppressed the gr mRNA level only after long-term treatment”.
